# Laboratory results from ChEMBL document CHEMBL5154709, “Tetrazole derivatives bearing benzodiazepine moiety-synthesis and action mode against virulence of Candida albicans” (Eur J Med Chem, 2022).
# The source made the active and inactive calls. The calls are words filed in the database; no cut-off is given here.
# How the values were obtained:
# [1] = tested on: Candida albicans; experiment: In vivo antifungal activity against Candida albicans SC5314 infected in Galleria mellonella larvae assessed as prevention of candidiasis at 16 ug/ml administered 1 hr prior to infection measured after 5 days by Hematoxylin and eosin staining; format: functional, organism-based; details: dose 16.0 µg/ml, time 5.0 day
# [2] = tested on: Candida albicans; experiment: Antifungal activity against Candida albicans SC5314 assessed as inhibition of fungal growth at 4 ug/ml incubated for 18 hrs by M27-A3 based microdilution method relative to control; format: functional
# [3] = tested on: Candida albicans; experiment: Antifungal activity against Candida albicans SC5314 assessed as inhibition of fungal growth at 16 ug/ml incubated for 18 hrs by M27-A3 based microdilution method relative to control; format: functional
# [4] = tested on: Candida albicans; experiment: Fungicidal activity against Candida albicans SC5314 assessed as inhibition of fungal growth incubated for 48 hrs by M27-A3 based microdilution method; format: functional
# [5] = tested on: Candida albicans; experiment: Antifungal activity against Candida albicans SC5314 assessed as inhibition of fungal growth at 8 ug/ml incubated for 18 hrs by M27-A3 based microdilution method relative to control; format: functional
# [6] = tested on: Candida albicans; experiment: Antifungal activity against Candida albicans SC5314 assessed as inhibition of fungal growth at 8 ug/ml incubated for 48 hrs by M27-A3 based microdilution method relative to control; format: functional
# [7] = tested on: Candida albicans; experiment: Antifungal activity against Candida albicans SC5314 assessed as inhibition of fungal growth at 4 ug/ml incubated for 48 hrs by M27-A3 based microdilution method relative to control; format: functional
# [8] = tested on: Candida albicans; experiment: Antifungal activity against Candida albicans SC5314 assessed as inhibition of fungal growth at 2 ug/ml incubated for 18 hrs by M27-A3 based microdilution method relative to control; format: functional
# [9] = tested on: Candida albicans; experiment: Antifungal activity against Candida albicans SC5314 assessed as inhibition of fungal growth at 2 ug/ml incubated for 48 hrs by M27-A3 based microdilution method relative to control; format: functional
# [10] = tested on: Candida albicans; experiment: Antifungal activity against Candida albicans SC5314 assessed as inhibition of fungal growth at 1 ug/ml incubated for 18 hrs by M27-A3 based microdilution method relative to control; format: functional
# [11] = tested on: Candida albicans; experiment: Antifungal activity against Candida albicans SC5314 assessed as inhibition of fungal growth at 1 ug/ml incubated for 48 hrs by M27-A3 based microdilution method relative to control; format: functional
# [12] = tested on: Candida albicans; experiment: Antifungal activity against Candida albicans SC5314 assessed as inhibition of fungal growth at 0.5 ug/ml incubated for 18 hrs by M27-A3 based microdilution method relative to control; format: functional
# [13] = tested on: Candida albicans; experiment: Antifungal activity against Candida albicans SC5314 assessed as inhibition of fungal growth at 0.5 ug/ml incubated for 48 hrs by M27-A3 based microdilution method relative to control; format: functional
# [14] = tested on: Candida albicans; experiment: Antifungal activity against Candida albicans SC5314 assessed as inhibition of fungal growth at 0.25 ug/ml incubated for 18 hrs by M27-A3 based microdilution method relative to control; format: functional
# [15] = tested on: Candida albicans; experiment: Antifungal activity against Candida albicans SC5314 assessed as inhibition of fungal growth at 0.25 ug/ml incubated for 48 hrs by M27-A3 based microdilution method relative to control; format: functional
# [16] = tested on: Candida albicans; experiment: Antifungal activity against Candida albicans SC5314 assessed as inhibition of fungal growth at 0.125 ug/ml incubated for 18 hrs by M27-A3 based microdilution method relative to control; format: functional
# [17] = tested on: Candida albicans; experiment: Antifungal activity against Candida albicans SC5314 assessed as inhibition of fungal growth at 0.125 ug/ml incubated for 48 hrs by M27-A3 based microdilution method relative to control; format: functional
# [18] = tested on: Candida albicans; experiment: Antifungal activity against Candida albicans SC5314 assessed as inhibition of fungal growth at 0.0625 ug/ml incubated for 18 hrs by M27-A3 based microdilution method relative to control; format: functional
# [19] = tested on: Candida albicans; experiment: Antifungal activity against Candida albicans SC5314 assessed as inhibition of fungal growth at 0.0625 ug/ml incubated for 48 hrs by M27-A3 based microdilution method relative to control; format: functional
# [20] = tested on: Candida albicans; experiment: Antifungal activity against Candida albicans SC5314 assessed as inhibition of fungal growth at 0.03125 ug/ml incubated for 18 hrs by M27-A3 based microdilution method relative to control; format: functional
# [21] = tested on: Candida albicans; experiment: Antifungal activity against Candida albicans SC5314 assessed as inhibition of fungal growth at 0.03125 ug/ml incubated for 48 hrs by M27-A3 based microdilution method relative to control; format: functional
# [22] = tested on: Candida albicans; experiment: Induction of apoptosis in Candida albicans SC5314 non-protoplast cells assessed as necrotic cells at 16 ug/ml incubated for 18 hrs by PI/Annexin V staining based flow cytometry assay; format: functional; details: dose 16 µg/ml
# [23] = tested on: Candida albicans; experiment: Induction of apoptosis in Candida albicans SC5314 protoplast cells assessed as necrotic cells at 16 ug/ml incubated for 18 hrs by PI/Annexin V staining based flow cytometry assay; format: functional; details: dose 16 µg/ml
# [24] = tested on: Candida albicans; experiment: Induction of cell cycle arrest in Candida albicans SC5314 assessed as accumulation of cells in G0/G1 phase at 16 ug/ml incubated fro 18 hrs by PI staining based flow cytometry method; format: functional, organism-based; details: dose 16.0 µg/ml
# [25] = tested on: Candida albicans; experiment: Induction of reactive oxygen species generation in Candida albicans SC5314 assessed as increase in ROS level at 16 ug/ml incubated for 18 hrs by DCFH-DA staining based flow cytometric analysis (reference value: 0.77+/- 0.4%); format: functional; details: dose 16 µg/ml
# [26] = tested on: Candida albicans; experiment: Induction of reactive oxygen species generation in Candida albicans cnb1delta/cnb1delta mutant assessed as increase in ROS level at 16 ug/ml incubated for 18 hrs by DCFH-DA staining based flow cytometric analysis (reference value: 4.7+/- 5.9%); format: functional; details: dose 16 µg/ml
# [27] = tested on: Candida albicans; experiment: Induction of reactive oxygen species generation in Candida albicans BWP17 assessed as increase in ROS level at 16 ug/ml incubated for 18 hrs by DCFH-DA staining based flow cytometric analysis (reference value: 7.2+/- 0.2%); format: functional; details: dose 16 µg/ml
# [28] = tested on: Candida albicans; experiment: Induction of reactive oxygen species generation in Candida albicans CNB1/cnb1delta mutant assessed as increase in ROS level at 16 ug/ml incubated for 18 hrs by DCFH-DA staining based flow cytometric analysis (reference value: 3.8+/- 4.2%); format: functional; details: dose 16 µg/ml
# [29] = tested on: Candida albicans; experiment: Antifungal against Candida albicans SC5314 biofilm co-cultured with African green monkey Vero cells assessed as apoptotic-like chromatin aggregation of intact hyphae by measuring green fluorescence emission at 16 ug/ml incubated for 18 hrs by PI/acridine orange double staining based confocal laser scanning microscopic analysis; format: functional, organism-based; details: dose 16.0 µg/ml
# [30] = tested on: Candida albicans; experiment: Antifungal against Candida albicans SC5314 biofilm assessed as amorphous layer of cell surface barrier at 16 ug/ml incubated for 18 hrs by Rho123 and Hoechst 33342 double staining based confocal laser scanning microscopic analysis; format: functional, organism-based; details: dose 16.0 µg/ml
# [31] = tested on: Vero; experiment: Cytotoxicity against African green monkey Vero cells at > 64 ug/ml measured after 24 hrs by XTT assay; format: toxicity, cell-based; details: chlorocebus sabaeus, dose > 64 µg/ml
# [32] = Cytotoxicity against human TR146 cells at more than 64 ug/ml measured after 24 hrs by XTT assay; format: toxicity, cell-based; details: tr146, 24 h, dose 64 µg/ml
# [33] = Toxicity in Galleria mellonella larvae assessed as melanization of larvae at 16 ug/ml measured every 24 hrs for 4 to 5 days relative to control; details: at 16 µg/mL, time 4-5 day
# [34] = Toxicity in Galleria mellonella larvae assessed as change in morphology at 16 ug/ml measured after 5 days by Hematoxylin and eosin staining; details: 120 h, dose 16 µg/ml, time 5 day
# [35] = tested on: Candida albicans; experiment: In vivo antifungal activity against Candida albicans SC5314 infected in Galleria mellonella larvae assessed as survival rate of larvae at 16 ug/ml administered 1 hr post infection measured within 5 days by Hematoxylin and eosin staining; format: functional; details: SC5314, 120 h, time 5 day
# [36] = tested on: Candida albicans; experiment: In vivo antifungal activity against Candida albicans SC5314 infected in Galleria mellonella larvae assessed as survival rate of larvae at 16 ug/ml administered 1 hr prior to infection measured within 5 days by Hematoxylin and eosin staining; format: functional; details: SC5314, 120 h, time 5 day
# [37] = tested on: Candida albicans; experiment: Antifungal activity against Candida albicans assessed as inhibition of fungal growth measured after 48 hrs by M27-A3 based broth microdilution; format: functional
# [38] = tested on: Candida albicans; experiment: Antifungal activity against Candida albicans assessed as inhibition of fungal growth measured after 48 hrs in presence of exogenous ergosterol by M27-A3 based broth microdilution; format: functional
smiles,measurement,setting,value
O=C1CN=C(c2ccccc2Br)c2cc(F)ccc2N1CCCn1nnc(-c2ccc(Cl)cc2)n1,Activity,[1],Active
same,inhibition at 4 µg/mL,[2],99.2%
same,inhibition at 16 µg/mL,[3],99.5%
same,inhibition (INH),[4],99.24%
same,inhibition at 8 µg/mL,[5],99%
same,inhibition at 8 µg/mL,[6],99%
same,inhibition at 4 µg/mL,[7],99.2%
same,inhibition at 2 µg/mL,[8],99.8%
same,inhibition at 2 µg/mL,[9],100%
same,inhibition at 1 µg/mL,[10],99%
same,inhibition at 1 µg/mL,[11],99.1%
same,inhibition at 0.5 µg/mL,[12],99%
same,inhibition at 0.5 µg/mL,[13],99%
same,inhibition at 0.25 µg/mL,[14],99.9%
same,inhibition at 0.25 µg/mL,[15],100%
same,inhibition at 0.125 µg/mL,[16],98.9%
same,inhibition at 0.125 µg/mL,[17],98.9%
same,inhibition at 0.0625 µg/mL,[18],99.3%
same,inhibition at 0.0625 µg/mL,[19],99.3%
same,inhibition at 0.03125 µg/mL,[20],100%
same,inhibition at 0.03125 µg/mL,[21],100%
same,Activity,[22],78.23%
same,Activity,[23],81.23%
same,Activity,[24],Active
same,Activity,[25],19.6%
same,Activity,[26],3.35%
same,Activity,[27],6.8%
same,Activity,[28],4.2%
same,Activity,[29],Active
same,Activity,[30],Active
same,Activity,[31],Toxic
same,Activity,[32],Non-Toxic
same,Activity,[33],17%
same,Activity,[34],Non-Toxic
same,survival at 16 µg/mL,[35],100%
same,survival at 16 µg/mL,[36],95%
same,MIC,[37],64 µg/mL
same,MIC,[38],2.56 µg/mL
